# According to paper PMC10790228 (Journal of medical virology, 2022):
# Tests used:
# [1] = tested on: HIV-1; settings: cited from earlier work
# [2] = tested on: HIV-1 NL4.3 virus; assay: Single-round infection assay, early and late stage; assay type: cell-based; settings: compound at 1 μM, average of 3 replicates
# [3] = tested on: wild-type HIV-2; assay: Anti-HIV-2 activity in MT-4 cells, MTT method; assay type: cell-based; settings: read-out: EC50 HIV-2
# [4] = molecular target: binding of CPSF6 to CA hexamer; assay: SPR-based competition assay with CPSF6; parameters: species or system HIV-1; settings: read-out: IC50 inhibition of CPSF6 binding to CA hexamer
# [5] = human, microsomes
# [6] = tested on: MT-4 cells
# [7] = Metabolic stability in human liver microsomes; settings: HLM, 0.5 mg protein/mL; for Remaining (NCF = 60min): no co-factor (no NADPH)
# [8] = cited from earlier work
# [9] = molecular target: HIV-1 CA hexamer; settings: read-out: KD Hexamer; SPR, average of at least 3 replicates
SMILES,anti-HIV-1 activity [1],Infection (%) Early-stage [2] [%],Infection (%) Late-stage [2] [%],EC50 [3] [nM],EC50 ([1]; read-out: anti-HIV-1 potency EC50) [nM],IC50 [4] [nM],CLint(mic) [5] [µL/min/mg],CC50 [6] [nM],T1/2 [7] [s],Remaining (T = 60min) [7] [%],Remaining (NCF = 60min) [7] [%],CLint(liver) ([7]; scaled from CLint(mic)) [mL/min/kg],metabolic stability T1/2 [8] [s],Kd [9] [nM]
CC(C)(C#Cc1ccc(-c2ccc(Cl)c3c(NS(C)(=O)=O)nn(CC(F)(F)F)c23)c([C@H](Cc2cc(F)cc(F)c2)NC(=O)Cn2nc(C(F)(F)F)c3c2C(F)(F)[C@@H]2C[C@H]32)n1)S(C)(=O)=O [GS-6207],picomolar,,,,,,,,,,,,,
Cc1[nH]c2ccccc2c1CC(=O)N[C@@H](Cc1ccccc1)C(=O)N(C)c1ccccc1 [PF-74],,0.07 ± 0.01,58.19 ± 12.54,3790 ± 390,520 to 900,26.6,2114.6,> 294000,42,0.0,106.1,1903.1,30 to 78,47 ± 0.6
C[C@]12CC[C@H]3[C@@H](CCC4=CC(=O)CC[C@@]43C)[C@@H]1CC[C@@H]2O [Testosterone],,,,,,,,,,4.8,95.8,,,
